Values quoted from earlier work in US10786601B2, “Composition comprising hyaluronic acid and mepivacaine” (Teoxane, priority 2013, dated 2020).

pKa: 7,6
Structure (SMILES): Cc1cccc(C)c1NC(=O)C1CCCCN1C (racemic) [mepivacaine]
